Measurements reported in ChEMBL document CHEMBL4354877, “MymA Bioactivated Thioalkylbenzoxazole Prodrug Family Active against Mycobacterium tuberculosis” (J Med Chem, 2020).
pIC50: −log10 of the molar value. ≈ marks a conversion by molar mass, not a printed value. Calls of active or inactive are those of the source. The calls are words filed in the database; no cut-off is given here.

Key:
[1] = Intrinsic clearance in mouse liver microsomes at 0.5 uM incubated for 45 mins in presence of NADPH by LC-MS/MS analysis; type: ADME, Microsome; details: 0.75 h
[2] = Intrinsic clearance in human liver microsomes at 0.5 uM incubated for 45 mins in presence of NADPH by LC-MS/MS analysis; type: ADME, Microsome; details: 0.75 h
[3] = test system: Mycobacterium tuberculosis; test: Antimycobacterial activity against Mycobacterium tuberculosis H37Rv intracellular forms infected in human THP1 cells assessed as inhibition of microbial growth incubated for 5 days by luciferase reporter gene assay; type: functional; details: THP-1, 120 h
[4] = Solubility in pH 6.5 FaSSIF incubated for 4 hrs by HPLC-UV based assay; type: physicochemical
[5] = Kinetic aqueous solubility in pH 7.4 PBS incubated for 1 hr by CLND assay; type: physicochemical; details: read-out: Kinetic_solubility
[6] = test system: HepG2; test: Cytotoxicity in human HepG2 cells assessed as reduction in cell viability incubated for 48 hrs by Cell-titer Glo kit based assay; details: HepG2, 48 h
[7] = test system: Mycobacterium tuberculosis; test: Antimycobacterial activity against Mycobacterium tuberculosis extracellular forms assessed as inhibition of microbial growth; type: functional
[8] = Permeability at pH 7.4 incubated for 4 hrs by PAMPA method; type: ADME; details: read-out: permeability
[9] = molecular target: T1, Cytochrome P450 3A4 (Homo sapiens, UniProt P08684); test: Inhibition of CYP3A4 (unknown origin) in presence of cofactor; type: ADME
[10] = test system: Hepatocyte; test: Cytotoxicity in human primary hepatocytes assessed as reduction in cell viability up to 100 uM incubated for 72 hrs by MTT assay; type: cell-based
[11] = test system: THP-1; test: Cytotoxicity in human THP1 cells assessed as reduction in cell viability incubated for 5 days hrs by ATPLite assay; type: cell-based; details: THP-1, 120 h
[12] = test system: Mycobacterium tuberculosis; test: Antimycobacterial activity against Mycobacterium tuberculosis H37Rv infected in C57BL/6 mouse model of acute infection assessed as reduction in mycobacterial load in lung at 200 mg/kg dosed once per day for 8 days co-dosed with 50 mg/kg/day CYP inhibitor ABT; type: functional, organism-based
[13] = molecular target: T1, Cytochrome P450 3A4; test: Inhibition of CYP3A4 (unknown origin) in absence of cofactor; type: ADME
[14] = test system: Mycobacterium tuberculosis; test: Antimycobacterial activity against Mycobacterium tuberculosis H37Rv assessed as inhibition of microbial growth incubated for 6 days by alamar blue resazurin assay; type: functional; details: 144 h
[15] = Stability in human liver microsomes assessed as GSH-conjugates formation at 25 uM incubated for 60 mins in presence of NADPH and GSH by LC-MS/MS analysis; type: ADME, Microsome; details: 1 h

T1 sequence (P08684 whole entry): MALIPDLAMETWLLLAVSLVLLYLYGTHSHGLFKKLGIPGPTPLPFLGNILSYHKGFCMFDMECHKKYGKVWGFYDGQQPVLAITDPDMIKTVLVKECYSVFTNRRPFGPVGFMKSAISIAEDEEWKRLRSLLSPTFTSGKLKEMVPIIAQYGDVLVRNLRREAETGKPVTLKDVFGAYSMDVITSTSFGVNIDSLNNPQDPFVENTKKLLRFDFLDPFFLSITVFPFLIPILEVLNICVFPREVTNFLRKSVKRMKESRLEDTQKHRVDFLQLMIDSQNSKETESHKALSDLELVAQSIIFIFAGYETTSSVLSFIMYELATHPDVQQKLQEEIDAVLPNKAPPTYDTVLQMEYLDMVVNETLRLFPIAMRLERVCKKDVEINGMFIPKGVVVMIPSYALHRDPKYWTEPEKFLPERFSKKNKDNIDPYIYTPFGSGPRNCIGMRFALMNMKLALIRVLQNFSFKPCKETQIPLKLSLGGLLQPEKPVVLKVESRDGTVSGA

CN(C)C(=O)CCSc1nc2cc(Cl)ccc2o1
CLH [1]: 41.8 mL/min/g
CLH [2]: 2.7 mL/min/g
IC90 [3]: 30 µM

O=C(CCCSc1nc2cc(Cl)ccc2o1)N1CCCC1
CLH [1]: 124.8 mL/min/g
CLH [2]: 3.4 mL/min/g
IC90 [3]: 2.3 µM

O=C(CCSc1nc2cc(Cl)ccc2o1)N1CCS(=O)(=O)CC1
CLH [1]: 2.3 mL/min/g
CLH [2]: 0.4 mL/min/g
IC90 [3]: > 50 µM

CC(CC(=O)N1CCCC1)Sc1nc2cc(Cl)ccc2o1 (stereo not drawn)
CLH [1]: 165.1 mL/min/g
CLH [2]: 8.6 mL/min/g
IC90 [3]: 4 µM

O=C(CCSc1nc2ccccc2o1)N1CCCC1
CLH [1]: 161.2 mL/min/g
CLH [2]: 5.1 mL/min/g
IC90 [3]: 4.4 µM

CCNC(=O)CCSc1nc2cc(Cl)ccc2o1
IC90 [3]: > 50 µM

O=S1(=O)CCCN1CCCSc1nc2cc(Cl)ccc2o1
CLH [1]: 115.2 mL/min/g
CLH [2]: 4.7 mL/min/g
IC90 [3]: 7.7 µM

O=C(CCSc1nc2cc(Cl)ccc2o1)NC1CCCC1
CLH [2]: 11.3 mL/min/g
IC90 [3]: > 50 µM

O=C(CCSc1nc2cc(Cl)ccc2o1)N1CCCCC1
CLH [1]: 127.7 mL/min/g
CLH [2]: 10.7 mL/min/g
IC90 [3]: 2.5 µM

COc1ccc2oc(SCCC(=O)N3CCCC3)nc2c1
CLH [1]: 197.8 mL/min/g
CLH [2]: 6.1 mL/min/g
IC90 [3]: 4 µM

CSc1nc2cc(Cl)ccc2o1
CLH [1]: > 46.1 mL/min/g
CLH [2]: 19 mL/min/g
IC90 [3]: > 50 µM

Cc1ccc2oc(SCCC(=O)N3CCCC3)nc2c1
CLH [2]: 9.3 mL/min/g
IC90 [3]: 8.4 µM

CS(=O)(=O)C1CCN(C(=O)CCSc2nc3cc(Cl)ccc3o2)CC1
CLH [1]: 2.6 mL/min/g
CLH [2]: 0.5 mL/min/g
IC90 [3]: > 50 µM

CS(=O)(=O)C1CCN(C(=O)CCSc2nc3cc(Cl)ccc3o2)C1 (racemic)
CLH [1]: 2.1 mL/min/g
CLH [2]: < 0.4 mL/min/g
IC90 [3]: > 50 µM

O=C(CCSc1nc2cnccc2o1)N1CCCC1
CLH [1]: 3.1 mL/min/g
CLH [2]: 0.6 mL/min/g
IC90 [3]: 35.1 µM

O=C(CCSc1nc2cccc(Cl)c2o1)N1CCCC1
CLH [1]: 121.9 mL/min/g
CLH [2]: 13.5 mL/min/g
IC90 [3]: 2.7 µM

CN(C(=O)CCSc1nc2cc(F)ccc2o1)C1CCS(=O)(=O)CC1
CLH [1]: 0.6 mL/min/g
CLH [2]: < 0.4 mL/min/g
IC90 [3]: > 50 µM

O=C(CCSc1nc2cc(Cl)ccc2o1)N1CCC1
CLH [1]: 17.9 mL/min/g
CLH [2]: 3.7 mL/min/g
IC90 [3]: > 50 µM

CN(CCC(=O)N1CCCC1)c1nc2cc(Cl)ccc2o1
CLH [2]: 1.9 mL/min/g
IC90 [3]: > 50 µM

Clc1ccc2oc(SCCCN3CCCC3)nc2c1
CLH [1]: 10.4 mL/min/g
CLH [2]: 1.9 mL/min/g
IC90 [3]: 42.6 µM

O=C(CCSc1nc2cc(Cl)ccc2o1)N1CCC(F)(F)C1
CLH [1]: 83.6 mL/min/g
CLH [2]: 11.3 mL/min/g
IC90 [3]: 1.1 µM

O=C(CCSc1nc2ccc(Cl)cc2o1)N1CCCC1
CLH [1]: 109.4 mL/min/g
CLH [2]: 6.6 mL/min/g
IC90 [3]: 1.6 µM

O=C(CCSc1nc2c(Cl)cccc2o1)N1CCCC1
CLH [1]: 97.9 mL/min/g
CLH [2]: 15.8 mL/min/g
IC90 [3]: 24.3 µM

O=C(CCSc1ncc(-c2ccccc2)o1)N1CCCC1
CLH [1]: 176.6 mL/min/g
CLH [2]: 11 mL/min/g
IC90 [3]: > 50 µM

O=C(CCSc1nc2cc(F)ccc2o1)N1CCS(=O)(=O)CC1
CLH [1]: 1.5 mL/min/g
CLH [2]: 0.4 mL/min/g
IC90 [3]: > 50 µM

CC1CCN(C(=O)CCSc2nc3cc(Cl)ccc3o2)C1 (stereo not drawn)
CLH [1]: 90.7 mL/min/g
CLH [2]: 10.1 mL/min/g
IC90 [3]: 3.1 µM

CC1CCCN1C(=O)CCSc1nc2cc(Cl)ccc2o1 (racemic)
CLH [1]: 98 mL/min/g
CLH [2]: 8.5 mL/min/g
IC90 [3]: 25.5 µM

O=C1CCCN1CCCSc1nc2cc(Cl)ccc2o1
CLH [1]: 51 mL/min/g
CLH [2]: 4.8 mL/min/g
IC90 [3]: 6.5 µM

CN(C(=O)CCSc1nc2cc(Cl)ccc2o1)C1CCS(=O)(=O)CC1
CLH [1]: 0.7 mL/min/g
solubility at 4 h [4]: 178 µg/mL (≈ 442 µM)
CLH [2]: < 0.4 mL/min/g
solubility kinetic at 1 h [5]: > 328 µM
pIC50 [6]: < 4.00
IC90 [3]: 7.7 µM
MIC [7]: 40 µM
Papp at 4 h [8]: 44 ×10⁻⁶ cm/s

O=C(CCSc1nc2cc(N3CCOCC3)ccc2o1)N1CCCC1
CLH [1]: 18.7 mL/min/g
CLH [2]: 1.1 mL/min/g
IC90 [3]: 27.2 µM

CN(C(=O)CCSc1nc2cc(Cl)ccc2o1)C1CCS(=O)(=O)C1 (stereo not drawn)
CLH [1]: 0.8 mL/min/g
CLH [2]: 1.5 mL/min/g
IC90 [3]: 25.4 µM

O=C(CCSc1nc2cc(F)c(F)cc2o1)N1CCCC1
CLH [1]: 45.9 mL/min/g
CLH [2]: 6.5 mL/min/g
IC90 [3]: 1.3 µM

O=C(CSCc1nc2cc(Cl)ccc2o1)N1CCCC1
CLH [1]: 71.8 mL/min/g
CLH [2]: 1.5 mL/min/g
IC90 [3]: > 50 µM

O=C(CCSc1nc2ncccc2o1)N1CCCC1
CLH [1]: 18.6 mL/min/g
CLH [2]: 0.7 mL/min/g
IC90 [3]: > 50 µM

Cc1nc(SCCC(=O)N2CCCC2)oc1C
CLH [1]: 3.9 mL/min/g
CLH [2]: < 0.4 mL/min/g
IC90 [3]: > 50 µM

O=C(CCSc1nc2cc(Cl)ccc2s1)N1CCCC1
CLH [1]: 67 mL/min/g
CLH [2]: 15 mL/min/g
IC90 [3]: 15.6 µM

CS(=O)(=O)N1CCN(C(=O)CCSc2nc3cc(Cl)ccc3o2)CC1
CLH [1]: 1.4 mL/min/g
CLH [2]: 0.6 mL/min/g
IC90 [3]: 20.4 µM

O=C(CCSc1nc2cc(Cl)ccc2o1)N1CCOCC1
CLH [1]: 36.5 mL/min/g
CLH [2]: 2.2 mL/min/g
IC90 [3]: 11.4 µM

O=C(CCNc1nc2cc(Cl)ccc2o1)N1CCCC1
CLH [1]: 81.1 mL/min/g
CLH [2]: 2.3 mL/min/g
IC90 [3]: > 50 µM

O=C(CCSc1nc(-c2ccccc2)co1)N1CCCC1
CLH [2]: 20.9 mL/min/g
IC90 [3]: > 50 µM

O=C(CCSc1nc2cc(Cl)ccc2o1)N1CCCC1
pIC50 [9]: < 4.40
CLH [1]: 131 to 132 mL/min/g
Activity [10]: Non-Toxic
solubility at 4 h [4]: 8 µg/mL (≈ 25.7 µM)
pIC50 [11]: < 4.30
CLH [2]: 5.8 mL/min/g
Activity [12]: inactive
pIC50 [13]: < 4.40
solubility kinetic at 1 h [5]: > 362 µM
pIC50 [6]: < 4.00
MIC [14]: 10 µM
IC90 [3]: 2.8 µM
MIC [7]: 10 µM
Stability [15]: Stable
Papp at 4 h [8]: 78 ×10⁻⁶ cm/s

O=C(CCSc1nc2ccncc2o1)N1CCCC1
CLH [1]: 5.7 mL/min/g
CLH [2]: 0.9 mL/min/g
IC90 [3]: > 50 µM

CN1CCN(C(=O)CCSc2nc3cc(Cl)ccc3o2)CC1
CLH [1]: 41.5 mL/min/g
CLH [2]: 1.5 mL/min/g
IC90 [3]: 17.2 µM

O=C(CCCc1nc2cc(Cl)ccc2o1)N1CCCC1
CLH [1]: 115.2 mL/min/g
CLH [2]: 1.4 mL/min/g
IC90 [3]: > 50 µM

O=C(CCSc1nc2cc(F)ccc2o1)N1CCCC1
CLH [1]: 115.2 mL/min/g
CLH [2]: 5.2 mL/min/g
IC90 [3]: 1.6 µM

O=C(CCSc1nc2cc(Cl)ccc2o1)N1CCS(=O)(=O)C1
CLH [1]: 8.9 mL/min/g
CLH [2]: 1.7 mL/min/g
IC90 [3]: > 50 µM

CCN(CC)C(=O)CCSc1nc2cc(Cl)ccc2o1
CLH [1]: 107.5 mL/min/g
CLH [2]: 5.9 mL/min/g
IC90 [3]: 3.9 µM

O=C(CSc1nc2cc(Cl)ccc2o1)N1CCCC1
CLH [1]: 153.6 mL/min/g
CLH [2]: 1.6 mL/min/g
IC90 [3]: 36 µM

O=C(CCSc1nc2cc(Cl)ccc2[nH]1)N1CCCC1
CLH [1]: 56.8 mL/min/g
CLH [2]: 9.2 mL/min/g
IC90 [3]: > 50 µM
